PMC10205807, “Cross-species comparison in nonclinical pharmacokinetics of lenvatinib by a simple HPLC with ultraviolet detection” (Scientific Reports, 2023)

Experiments:
[1] = Allometric PK scaling, prediction of CLint in humans; settings: cross-species allometric scaling, BW 70 kg
Procedure: One of the typical approaches for predicting human PK from animal PK is empirical allometric scaling. As the CLtot of lenvatinib was relatively low and Vdss of lenvatinib was low to medium, thus it is theoretically preferable to correct by fp for both parameters. The CLtot divided by fp (CLtot/fp) or Vdss divided by fp (Vdss/fp) were plotted against body weight (BW) by log–log scale, and a linear regression was performed to estimate a slope and intercept for linear regression. The BW used in the calculation was 0.02, 0.2, 10, 5, and 70 kg for mice, rats, dogs, monkeys, and humans, respectively. CLtot and Vdss of lenvatinib in humans were predicted by using the regression line and the BW of humans. As no PK data of lenvatinib are available for CLtot and Vdss, which can be estimated only from intravenous administration PK study in humans, it is not possible to assess predictability of the allometric scaling for these two parameters of lenvatinib in humans. However, it is possible to predict exposure of lenvatinib after oral administration (AUCoral) in humans from the allometry scaling of hepatic intrinsic clearance (CLint). […]

[2] = Stability of lenvatinib in rat plasma and processed samples; format: physicochemical, rats; settings: for Processed sample stability, mean percentage bias from the theoretical values: processed rat plasma samples, 4 °C, 7 days
Procedure: Calibration samples and QC samples for the reproducibility assessment were prepared by spiking 0.05 mL of the working standard solutions to blank plasma (0.05 mL), and QC samples for the stability assessment were prepared by fortifying 0.05 mL of the solution to 1.5 mL of bank plasma. Lenvatinib concentrations in plasma were 0.005, 0.01, 0.03, 0.1, 0.3, 1, 3, 10, 30, and 100 μg/mL for the calibration samples, and were 0.005, 0.01, 1, and 100 μg/mL for the QC samples for reproducibility assessment. Lenvatinib concentrations of QC samples for the stability assessment were 0.01, 1, and 80 μg/mL.
The developed method for the determination of lenvatinib concentrations in plasma was validated and the following validation parameters including linearity, selectivity, intra- and inter-batch reproducibility, extraction recovery, and stability were evaluated in accordance with the bioanalytical guidelines by United States Food and Drug Administration (US-FDA)[7]. The peak height ratios of lenvatinib to the IS of calibration samples were plotted against the corresponding nominal concentrations of lenvatinib. The calibration curve was prepared by the least square method with 1/(concentration)^2 as the weighting factor. In the linearity assessment, accuracy of each calibration sample was determined to ensure that relative error (RE) at each concentration was within ± 15% (within ± 20% at the LLOQ). […] Intra-batch accuracy and precision were evaluated using QC samples at the four concentrations, LLOQ, low QC (LQC), mid QC (MQC), and ULOQ. […] Inter-batch accuracy and precision were evaluated by testing a single sample at each concentration across five batches (n = 5 in total). […] Extraction recoveries of lenvatinib and the IS from plasma samples of the four species were evaluated. The recoveries of lenvatinib at the low, mid, and high QC levels (triplicates per concentration), and that of the IS (0.5 μg/mL) were determined. […] Stability of lenvatinib in plasma and processed samples was assessed at the low and high QC levels. Lenvatinib concentrations in samples after storage were compared to the theoretical concentrations and RE values were calculated. […] Freeze–thaw stability in plasma was evaluated up to three freeze–thaw cycles and frozen stability in plasma was evaluated at − 15 °C or below for 4 weeks (mice, rats, and dogs) or 6 weeks (monkeys). Stability in processed samples was assessed at 4 °C for 7 days. Stability of lenvatinib in the standard solutions was evaluated for the stock (100 μg/mL) and the working solution (5 ng/mL). The stability of the IS solution (0.5 μg/mL) was also assessed. […]

CLint predicted in humans [1]: 4.704 L/h/kg | Processed sample stability, mean percentage bias from the theoretical values ([2]; HQC 80 μg/mL): 0.3% | Processed sample stability, mean percentage bias from the theoretical values ([2]; MQC 1 μg/mL): 0.2% | Freeze/thaw stability, mean percentage bias from the theoretical values ([2]; rat plasma, 3 cycles, MQC 1 μg/mL): 3.6% | Frozen stability, mean percentage bias from the theoretical values ([2]; rat plasma, below − 15 °C, 4 weeks, LQC 0.01 μg/mL): 1.0%
Structure (SMILES): COc1cc2nccc(Oc3ccc(NC(=O)NC4CC4)c(Cl)c3)c2cc1C(N)=O [lenvatinib, Lenvatinib]
